Source: PMC8230474, “Synthesis of Novel Acyl Derivatives of 3-(4,5,6,7-Tetrabromo-1H-benzimidazol-1-yl)propan-1-ols—Intracellular TBBi-Based CK2 Inhibitors with Proapoptotic Properties” (International Journal of Molecular Sciences, 2021)
Read-outs that look alike come from different tables or passages of the source.

Tests used:
[1] = target: CK2 holoenzyme (CK2 α2β2) (Homo sapiens, UniProt P68400); experiment: Radiometric (P81 filter isotopic) kinase assay, CK2 holoenzyme; format: biochemical; conditions: read-out: Residual Activity of the Enzyme CK2 α2β2; for remaining activity at 5 µM: 5 µM compound; for remaining activity at 10 µM: 10 µM compound
[2] = system: MCF-7 cells; experiment: MTT viability assay, MCF-7; format: cell-based; conditions: Homo sapiens, read-out: EC50 ± SD MCF-7
Method: (§1) To test the anti-cancer effect of the TBBi derivatives, we treated the MCF-7 and MDA-MB-231 cells with the newly synthesized esters and previously reported compounds [34, 57] at the concentration range of 3.125 to 200 µM for 24 h, 48 h and 72 h. Additionally, the range of concentrations was extended by additional lower concentrations in MCF-7 for compound 4 with the minimum concentration of 0.195 µM. […] The EC50 values, describing the half maximal effective concentration of each tested compound, were calculated and are summarized in Table 2. […] We observed that the EC50 values increase in both cell lines with the elongation of fatty acids chain length in the tested compounds, thus strongly correlating with the decrease of their solubility in biological media as characterized by logS parameter (Table 2). The second reason for the decreased biological activity of the longer-chain aliphatic esters might be attributed to their greater resistance toward intracellular hydrolysis, which directly influences the slower release of the active form of the corresponding CK2 inhibitors. […] However, none of the tested compounds, except for compound 5, decreased the viability of both cell lines in a time-dependent manner (Figure 4).
(§2) MCF-7 and MDA-MB-231 were cultured in high-glucose Dulbecco’s modified Eagle medium (DMEM, Lonza, Basel, Switzerland) supplemented with 10% fetal bovine serum (FBS, EuroClone, Siziano, Italy)), 2 mM L-glutamine, and antibiotics (100 U/mL penicillin, 100 µg/mL streptomycin) (Sigma-Aldrich Chemical Company (St. Louis, MO, USA). Cells were grown in 75-cm^2 cell culture flasks (Sarstedt, Nümbrecht, Germany) in a humidified atmosphere of CO2/air (5%/95%) at 37 °C. All the experiments were performed in exponentially growing cultures. Stock solutions of the test compounds were prepared in DMSO and stored in −80 °C for a maximum of one month. For the cytotoxicity studies, stock solutions of the tested compounds were diluted 200-fold with the proper culture medium to obtain the final concentrations.
(§3) After incubation with the tested compounds, an MTT test was performed as described previously. Optical densities were measured at 570 nm using BioTek microplate reader (Winooski, VT, USA). All measurements were carried out in a minimum of three biological replicates.

[3] = system: MDA-MB-231 cells; experiment: MTT viability assay, MDA-MB-231; format: cell-based; conditions: Homo sapiens, read-out: EC50 ± SD MDA-MB-231
Method: as §1, §2, §3

[4] = system: protein kinase CK2 in MCF-7 cells; experiment: Intracellular inhibition of CK2, Western blot of p-Ser529 p65 and p-Ser129 Akt1, MCF-7; format: cell-based, human
Excerpt: We observed an inhibition of CK2 in both cell lines; however, the lower efficiency of CK2 inhibition was detected in MCF-7 considering the extent of Akt1 phosphorylation. The relative level of the phosphorylation of the tested proteins in MDA-MB-231 cells was in the range of 0.32 to 0.80 for p-Ser529 p65 and 0.41 to 0.73 for p-Ser129 Akt1, whereas in MCF-7 cells it was in the range of 0.33 to 0.78 for p-Ser529 p65 and 0.82 to 1.23 for p-Ser129 Akt1, respectively. The lowest phosphorylation levels of the tested proteins were detected in MDA-MB-231 cells for compound 6b with the relative level of 0.41 for Ser129 Akt1 as well as for compound 6c with the relative level of 0.32 for p-Ser529 p65. Among the tested proteins, the lowest extent of phosphorylation in MCF-7 cells was detected for 6b with the relative level of 0.33 for p-Ser529 p65, and for 6a with the relative level of 0.82 for Ser129 Akt1.
Considering an inefficient inhibition of CK2 in MCF-7, we evaluated an inhibition of CK2 in this cell line after 72 h. […] The relative levels were in the range of 0.17 to 0.8 for p-Ser529 p65 and 0.19 to 0.79 for p-Ser129 Akt1.
The MCF-7 cells growing exponentially were seeded at 4.8 × 10^5 cells in 6-cm-diameter plates. Subsequently, compounds were added in a final concentration of 0.5% DMSO. After incubation, floating cells were collected and cell monolayer was washed three times in ice-cold PBS and the cells were scraped, combined with floating cells and lysed in RIPA buffer consisting of 50 mM Tris-HCl (pH 7.4), 1% NP-40, 0.5% sodium deoxycholate, 0.1% SDS, 150 mM NaCl, 2 mM EDTA, 50 mM NaF, 0.2 mM sodium orthovanadate, and protease inhibitors cocktail. Subsequently, cells were sonicated (three times for 15 s), centrifuged at 20,000× g for 15 min at 4 °C, and the supernatants were collected and stored at −80 °C. The protein concentration was determined using Bradford assay. Then, supernatants were incubated with the Laemmli buffer for 5 min at 98 °C. Equal amounts of total protein (10 to 20 μg) were analyzed by SDS-PAGE, and subsequently, Western blotting was performed using primary antibodies in blocking buffer containing either 3% BSA (bovine serum albumin) or 3% milk in TBS-T (Tris-buffered saline (10 mM Tris-HCl (pH 8), 150 mM NaCl) containing 0.1% Tween 20 or 0.2% Triton X-100) for 1 h. After overnight incubation at 4 °C with the primary antibodies, the membranes were washed with TBS-T and probed with the respective secondary antibodies. The ECL substrate was used for detection and immunoblots were scanned using G Box Chemi (Syngene, Cambridge, UK) with GeneSys software (Syngene, Cambridge, UK) or were developed with the use of X-rays films. UV-irradiated Jurkat cells were used as a positive control in Western blot analysis of c-PARP1. After 2 h, one-minute UV-irradiated Jurkat leukemic T-cell line was lysed and subjected to analysis.
For densitometry, immunoblots were quantified using the Fiji distribution of the ImageJ 1.52a software (National Institutes of Health, Bethesda, MD, USA, and the University of Wisconsin, Madison, WI, USA). Phosphorylated protein densities were normalized to GAPDH densities, assuming 1 for untreated cells and then they were converted to a percent of the appropriate control.

[5] = system: MCF-7 cells; experiment: Cleaved PARP1 Western blot, MCF-7; format: cell-based, human; conditions: MCF-7, 72 h treatment, compound at its EC50
Method: In order to evaluate the proapoptotic properties of the newly synthesized derivatives, we analyzed the level of cleaved PARP1 [c-PARP1, nuclear poly (ADP-ribose) polymerase 1], the hallmark of apoptotic cells.
Considering the lack of significant effect of the tested compounds in MCF-7 cells after 24-h treatment, we additionally evaluated c-PARP1 level in this cell line after 72 h of treatment. […] It should be noted that the highest level of c-PARP up to almost 20-fold higher than in the control was detected in the cell culture treated with a derivative 6b.
The MCF-7 cells growing exponentially were seeded at 4.8 × 10^5 cells in 6-cm-diameter plates. Subsequently, compounds were added in a final concentration of 0.5% DMSO. […] The protein concentration was determined using Bradford assay. […] Equal amounts of total protein (10 to 20 μg) were analyzed by SDS-PAGE, and subsequently, Western blotting was performed using primary antibodies in blocking buffer containing either 3% BSA (bovine serum albumin) or 3% milk in TBS-T (Tris-buffered saline (10 mM Tris-HCl (pH 8), 150 mM NaCl) containing 0.1% Tween 20 or 0.2% Triton X-100) for 1 h. […]
For densitometry, immunoblots were quantified using the Fiji distribution of the ImageJ 1.52a software (National Institutes of Health, Bethesda, MD, USA, and the University of Wisconsin, Madison, WI, USA). […]

[6] = MCF-7, 72 h treatment, compound at its EC50, relative to untreated control

Sequence of CK2 holoenzyme (CK2 α2β2) (P68400 whole entry): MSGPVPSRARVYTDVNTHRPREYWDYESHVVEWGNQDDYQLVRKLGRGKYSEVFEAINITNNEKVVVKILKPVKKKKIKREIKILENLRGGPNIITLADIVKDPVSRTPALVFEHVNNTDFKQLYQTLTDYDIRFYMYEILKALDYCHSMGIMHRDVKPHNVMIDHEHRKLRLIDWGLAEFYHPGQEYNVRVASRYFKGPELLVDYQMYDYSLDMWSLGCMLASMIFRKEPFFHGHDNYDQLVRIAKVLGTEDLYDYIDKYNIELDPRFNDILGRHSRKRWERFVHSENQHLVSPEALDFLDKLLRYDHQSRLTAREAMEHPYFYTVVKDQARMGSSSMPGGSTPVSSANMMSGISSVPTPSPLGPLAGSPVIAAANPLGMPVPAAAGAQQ
Sequence of CK2 holoenzyme (CK2 α2β2) (P67870 whole entry partner): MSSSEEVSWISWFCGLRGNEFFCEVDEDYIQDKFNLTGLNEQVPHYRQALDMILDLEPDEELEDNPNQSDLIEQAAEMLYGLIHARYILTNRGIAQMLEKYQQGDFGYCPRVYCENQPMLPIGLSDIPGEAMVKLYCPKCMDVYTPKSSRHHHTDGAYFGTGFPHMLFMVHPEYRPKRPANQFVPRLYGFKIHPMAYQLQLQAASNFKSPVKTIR

remaining activity at 5 µM [1] [%] | remaining activity at 10 µM [1] [%] | EC50 ([2]; MCF7, 24 h) [µM] | EC50 ([2]; MCF7, 48 h) [µM] | EC50 ([2]; MCF7, 72 h) [µM] | EC50 ([3]; 24 h) [µM] | EC50 ([3]; 48 h) [µM] | EC50 ([3]; 72 h) [µM] | Structure (SMILES) | relative level of p-Ser129 Akt1 [4, 6] | relative level of p-Ser529 p65 [4, 6] | level of c-PARP1 relative to control [5] | relative level of p-Ser529 p65 ([4]; MCF-7, 24 h treatment, compound at its 72-h EC50, relative to untreated control)
95.3 ± 2.9 | 92.7 ± 3.5 | 24.3 ± 0.25 | 21.1 ± 1.23 | 29.9 ± 1.45 | 45.1 ± 5.43 | 23.7 ± 3.97 | 32.8 ± 3.25 | CCCCCCCC(=O)OCCCn1cnc2c(Br)c(Br)c(Br)c(Br)c21 [Compound 3c, 3-(4,5,6,7-Tetrabromo-1H-benzimidazol-1-yl)propyl octanoate] | 0.19 | 0.17 | significant increase | 
85.4 ± 0.6 | 71.4 ± 0.2 | 22.4 ± 1.12 | 18.59 ± 0.18 | 18.3 ± 2.86 | 51.4 ± 8.22 | 21.2 ± 2.4 | 22.1 ± 3.18 | CCCCCC(=O)OCCCn1c(C)nc2c(Br)c(Br)c(Br)c(Br)c21 [Compound 6b, (4,5,6,7-Tetrabromo-2-methyl-1H-benzimidazol-1-yl)propyl hexanoate] |  |  | ~20 fold | 0.33
